Patent US7432392B2, “Ester derivatives and medical use thereof” (Japan Tobacco Inc., priority 2003, dated 2008)

Columns and labels:
[1] = tested on: apolipoprotein B secretion from HepG2 cells; experiment: Inhibition of apolipoprotein B secretion from HepG2 cells; format: cell-based; settings: Homo sapiens, about 20 hours incubation, apo B in supernatant by ELISA
Protocol: HepG2 cells were suspended in Dulbecco's Modified Eagle's Medium (DMEM) (containing 10% fetal bovine serum, 100 units/mL penicillin and 100 μg/mL streptomycin), and placed on a 96-well plate (4×10^4 cells/well), then incubated for 24 hours. After removal of the medium, DMEM was replaced by a medium containing a sample dissolved in DMSO or a medium containing DMSO (concentration of DMSO: 0.5%) and incubation was further performed for about 20 hours, after which the supernatant was recovered, and concentration of apo B in the supernatant was assayed by Enzyme-Linked Immunosorbent Assay (ELISA)
ELISA was carried out as follows. Anti-human apo B monoclonal antibody (0.5 μg/well) diluted with a 50 mM sodium carbonate/sodium bicarbonate buffer was placed in a 96-well plate for ELISA, and allowed to stand at room temperature for 15 hours. After washing the plate, a blocking solution (250 μL/well) was placed in the well, and allowed to stand at room temperature for 1.5 hours. After washing the plate, a standard and a sample (100 μL/well) were placed in the well and allowed to stand at room temperature for 1.5 hours. The standard was prepared by adjusting the concentration of the purified human apo B with the DMEM to 0 to 250 ng/mL. After washing the plate, an anti-human apo B polyclonal antibody labeled with a horse radish peroxidase which was diluted in 1:1000 with DEME (100 μL/well) was added, and allowed to stand at room temperature for 1.5 hours. After washing the plate, 2,2-azinobis(3-ethylbenzothiazoline-6-sulfonic acid) solution (100 μL/well) was placed in the well, and allowed to stand at room temperature for 0.5 hour. The reaction was stopped by addition of 2% oxalic acid (100 μL/well), and absorbency at 405 nm was measured. Concentration of apo B in the sample was calculated on the basis of a standard curve of the standard. Inhibition rate (%) was calculated from the assayed values in accordance with the following equation. Inhibition rate (%)=100×(1 minus (concentration of apo B in sample group/concentration of apo B in DMSO group).
Based on the above equation, 50% inhibition concentration (IC50) was determined.

[2] = target: T1, Microsomal triglyceride transfer protein (MTP) from bovine liver (Bos taurus, UniProt P55156); experiment: Inhibition of interliposomal triglyceride (TG) transfer activity by MTP; format: biochemical; settings: MTP-mediated TG transfer between donor and acceptor liposomes, 37° C., one hour
T1 construct: the purified MTP was used for the test; from tissue; host or cells: bovine liver
T1 sequence (P55156 12-887): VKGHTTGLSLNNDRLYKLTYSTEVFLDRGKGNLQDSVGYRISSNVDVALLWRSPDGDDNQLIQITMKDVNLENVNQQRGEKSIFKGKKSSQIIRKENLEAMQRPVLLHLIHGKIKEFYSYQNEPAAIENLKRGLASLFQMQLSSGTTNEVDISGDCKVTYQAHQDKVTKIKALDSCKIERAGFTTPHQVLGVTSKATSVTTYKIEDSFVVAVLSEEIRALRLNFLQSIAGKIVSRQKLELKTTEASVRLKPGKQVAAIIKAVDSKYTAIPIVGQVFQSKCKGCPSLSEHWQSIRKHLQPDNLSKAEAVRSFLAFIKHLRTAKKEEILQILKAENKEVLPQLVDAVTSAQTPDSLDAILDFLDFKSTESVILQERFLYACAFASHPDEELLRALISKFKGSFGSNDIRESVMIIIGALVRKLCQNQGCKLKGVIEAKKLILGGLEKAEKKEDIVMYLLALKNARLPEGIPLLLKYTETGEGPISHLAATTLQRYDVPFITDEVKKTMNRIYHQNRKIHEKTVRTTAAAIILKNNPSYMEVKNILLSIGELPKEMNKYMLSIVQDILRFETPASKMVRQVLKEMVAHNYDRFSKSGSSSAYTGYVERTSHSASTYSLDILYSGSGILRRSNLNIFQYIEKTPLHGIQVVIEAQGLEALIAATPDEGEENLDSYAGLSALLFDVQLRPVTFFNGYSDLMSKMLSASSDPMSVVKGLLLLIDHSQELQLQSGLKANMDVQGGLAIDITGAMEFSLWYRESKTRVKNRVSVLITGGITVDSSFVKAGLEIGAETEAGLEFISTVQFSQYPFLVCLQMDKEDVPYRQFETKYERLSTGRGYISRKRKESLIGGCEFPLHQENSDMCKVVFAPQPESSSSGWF
T1 sequence (P05307 21-510 partner): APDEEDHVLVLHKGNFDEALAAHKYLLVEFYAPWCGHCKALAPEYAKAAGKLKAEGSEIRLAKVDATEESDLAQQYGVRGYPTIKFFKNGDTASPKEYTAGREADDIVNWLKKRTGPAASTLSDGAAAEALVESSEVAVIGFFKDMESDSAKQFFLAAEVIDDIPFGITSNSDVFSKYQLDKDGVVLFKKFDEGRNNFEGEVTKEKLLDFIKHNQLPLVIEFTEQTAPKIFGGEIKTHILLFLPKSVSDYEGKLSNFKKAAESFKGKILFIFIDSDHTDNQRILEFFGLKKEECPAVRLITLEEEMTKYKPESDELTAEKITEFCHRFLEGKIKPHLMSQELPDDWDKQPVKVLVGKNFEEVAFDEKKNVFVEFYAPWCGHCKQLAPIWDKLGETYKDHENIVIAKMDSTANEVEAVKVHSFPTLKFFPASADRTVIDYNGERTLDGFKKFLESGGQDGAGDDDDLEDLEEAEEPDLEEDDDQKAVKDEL
Method in brief: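 Partially purified bovine liver MTP (DEAE chromatography) was incubated 1 h at 37° C with ^14C-triolein donor SUV liposomes and unlabeled acceptor liposomes in pH 7.4 Tris buffer with 0.5% BSA. Donor was removed with DEAE cellulose and acceptor radioactivity counted. IC50 came from blank-corrected inhibition relative to DMSO.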

IC50 [1]	IC50 [2]	SMILES	melting point
< 1000 nM	< 10 nM	CCOC(=O)C(COC(=O)Cc1ccc(NC(=O)c2ccccc2-c2ccc(C(F)(F)F)cc2)c(OC(=O)COC)c1)(C(=O)OCC)c1ccccc1 [Example 1-3]	–
< 10000 nM	10 to 100 nM	CCOC(=O)C(COC(=O)Cc1cccc(NC(=O)c2ccccc2-c2ccc(C(F)(F)F)cc2)c1OC(C)=O)(C(=O)OCC)c1ccccc1 [Example 1-4]	–

SMILES	IC50 [1]	IC50 [2]	melting point
CCOC(=O)C(COC(=O)COc1ccc(NC(=O)c2ccccc2-c2ccc(C(F)(F)F)cc2)c(C(=O)N(C)C)c1)(C(=O)OCC)c1ccccc1 [Example 3-2, 2-(2-{3-Dimethylcarbamoyl-4-[(4′-trifluoromethylbiphenyl-2-carbonyl)amino]phenoxy}acetoxymethyl)-2-phenylmalonic acid diethyl ester]	–	< 10 nM	132 to 138 °C
